Experimental data as given in patent US20230040909A1 (priority 2019, published 2023).
Converted amounts (≈) assume the structure as drawn. Where two headings read alike, the source gives them in different places.

Columns and labels:
Mycobacterium abscessus = experiment: M. ab_ATCC MIC MHII; assay type: cell-based
From the text: The procedure described in Franz 2017 was used to generate the data shown in column 5 of Table 4.

M. tb H37Rv [1] = experiment: microbe, parasite or virus in culture; assay type: cell-based, Mycobacterium tuberculosis; details: Mycobacterium tuberculosis, H37RV; for MIC: read-out: M. tb H37Rv: MIC-MABA
M. tb H37Rv [2] = experiment: microbe, parasite or virus in culture; assay type: cell-based; details: Mycobacterium tuberculosis, read-out: M. tb H37Rv: MIC-LORA
VERO cell cytotoxicity = assay type: cell-based; details: African green monkey, VERO cells
From the text: The procedures described in Falzari 2005 were used to generate the data shown in column 2 of Table 4.

[3] = Mycobacteroides abscessus; read-out: M. ab_ATCC: MIC MHII: MIC

| SMILES | MIC (Mycobacterium abscessus; [3]) [µg/mL] | MIC (M. tb H37Rv [1]) [µg/mL] | MIC (M. tb H37Rv [2]) [µg/mL] | IC50 (VERO cell cytotoxicity) [µg/mL] | MIC (Mycobacterium abscessus; Mycobacteroides abscessus, read-out: M. ab_ATCC: MIC MHII: MIC) [µg/mL] | inhibition at 1 µg/mL (M. tb H37Rv [1]; at 1 ug/mL, read-out: M. tb H37Rv: MABA % inhibition) [%] |
| --- | --- | --- | --- | --- | --- | --- |
| C[Si]1(C)CCCCC(NC(=O)c2cc3c(C(F)(F)F)cc(C(F)(F)F)cc3[nH]2)CC1 (stereo not drawn) [MPL-325, N-(1,1-dimethylsilocan-4-yl)-4,6-bis(trifluoromethyl)-1H-indole-2-carboxamide] | > 64 | 0.0305 (≈ 0.0677 µM) | > 20 | 16.4 (≈ 36.4 µM) |  |  |
| C[Si]1(C)CCCC(NC(=O)c2cc3c(C(F)(F)F)cc(C(F)(F)F)cc3[nH]2)CCC1 [MPL-326, N-(1,1-dimethylsilocan-5-yl)-4,6-bis(trifluoromethyl)-1H-indole-2-carboxamide] | > 64 | 0.0305 (≈ 0.0677 µM) | > 20 | 15.4 (≈ 34.2 µM) |  |  |
| C[Si]1(C)CCC(NC(=O)c2cc3c(C(F)(F)F)cc(C(F)(F)F)cc3[nH]2)C1 (stereo not drawn) [MPL-327, N-(1,1-dimethylsilolan-3-yl)-4,6-bis(trifluoromethyl)-1H-indole-2-carboxamide] | > 64 | 0.00752 (≈ 0.0184 µM) | > 20 | > 20 |  |  |
| Cc1c(C(=O)NC2CC[Si](C)(C)CC2)[nH]c2cc(Cl)cc(Cl)c12 [MPL-334, 4,6-dichloro-N-(1,1-dimethylsilinan-4-yl)-3-methyl-1H-indole-2-carboxamide] | > 64 | < 0.004 | > 20 | > 20 |  |  |
| Cc1c(C(=O)NC2CC[Si](C)(C)CC2)[nH]c2cc(F)cc(F)c12 [MPL-335, N-(1,1-dimethylsilinan-4-yl)-4,6-difluoro-3-methyl-1H-indole-2-carboxamide] | > 64 | < 0.004 | > 20 | > 20 |  |  |
| C[Si]1(C)CCC(NC(=O)c2cc3c(C(F)(F)F)cc(C(F)(F)F)cc3[nH]2)CC1 [MPL-336, N-(1,1-dimethylsilinan-4-yl)-4,6-bis(trifluoromethyl)-1H-indole-2-carboxamide] |  | 0.0306 (≈ 0.0724 µM) | > 20 | > 20 | > 64 |  |
| Cc1cc(Br)c2cc(C(=O)NC3CC[Si](C)(C)CC3)[nH]c2c1 [MPL-337, 4-bromo-N-(1,1-dimethylsilinan-4-yl)-6-methyl-1H-indole-2-carboxamide] | > 64 | 0.007 (≈ 0.0185 µM) | > 20 | > 20 |  |  |
| Cc1cc(Br)cc2[nH]c(C(=O)NC3CC[Si](C)(C)CC3)cc12 [MPL-338, 6-bromo-N-(1,1-dimethylsilinan-4-yl)-4-methyl-1H-indole-2-carboxamide] | > 64 | < 0.004 | > 20 | > 20 |  |  |
| C[Si]1(C)CCC(NC(=O)c2cc3c(Br)cc(C(F)(F)F)cc3[nH]2)CC1 [MPL-339, 4-bromo-N-(1,1-dimethylsilinan-4-yl)-6-(trifluoromethyl)-1H-indole-2-carboxamide] | > 64 | < 0.004 | > 20 | > 20 |  |  |
| Cc1cc(C#N)cc2[nH]c(C(=O)NC3CC[Si](C)(C)CC3)cc12 [MPL-340, 6-cyano-N-(1,1-dimethylsilinan-4-yl)-4-methyl-1H-indole-2-carboxamide] | > 64 | < 0.004 | > 20 | > 20 |  |  |
| Cc1cc(C#N)c2cc(C(=O)NC3CC[Si](C)(C)CC3)[nH]c2c1 [MPL-344, 4-cyano-N-(1,1-dimethylsilinan-4-yl)-6-methyl-1H-indole-2-carboxamide] | > 64 | 0.008 (≈ 0.0246 µM) | > 20 | > 20 |  |  |
| CC(CC[Si](C)(C)C)NC(=O)c1cc2c(Cl)cc(Cl)cc2[nH]1 (stereo not drawn) [MPL-360, 4,6-dichloro-N-(1-methyl-3-trimethylsilyl-propyl)-1H-indole-2-carboxamide] |  |  | > 20 | 15.4 (≈ 43.1 µM) |  | 87 |
| CC(C)Oc1cc(F)cc2[nH]c(C(=O)NC3CC[Si](C)(C)CC3)cc12 [MPL-383, N-(1,1-dimethylsilinan-4-yl)-6-fluoro-4-isopropoxy-1H-indole-2-carboxamide] | > 64 | 0.0148 (≈ 0.0408 µM) | > 20 | > 20 |  |  |
| COCCOc1cc(F)cc2[nH]c(C(=O)NC3CC[Si](C)(C)CC3)cc12 [MPL-384, N-(1,1-dimethylsilinan-4-yl)-6-fluoro-4-(2-methoxyethoxy)-1H-indole-2-carboxamide] | > 64 | 0.0308 (≈ 0.0814 µM) | 9.36 (≈ 24.7 µM) | > 20 |  |  |
| Cc1cc(C(F)(F)F)c2cc(C(=O)NC3CC[Si](C)(C)CC3)[nH]c2c1 [MPL-385, N-(1,1-dimethylsilinan-4-yl)-6-methyl-4-(trifluoromethyl)-1H-indole-2-carboxamide] | 64 (≈ 174 µM) | < 0.004 | 12.7 (≈ 34.5 µM) | > 20 |  |  |
| Cc1cc(C(F)(F)F)c2cc(C(=O)NC3CCC[Si](C)(C)CCC3)[nH]c2c1 [MPL-386, N-(1,1-dimethylsilocan-5-yl)-6-methyl-4-(trifluoromethyl)-1H-indole-2-carboxamide] | > 64 | < 0.004 | > 20 | > 20 |  |  |
